This is an account of results in US20240208978A1, “IDH MUTANT INHIBITOR AND USE THEREOF” (WIGEN BIOMEDICINE TECHNOLOGY (SHANGHAI) CO., LTD., priority 2021, published 2024).

Data set [1] is described as follows: Stability test of mouse liver microsomes. It counts as in vitro ADME. The following applies: 1 μM compound, 500 μg/ml mouse liver microsomes, NADPH regeneration system, 37° C.; read-out: Liver microsomal stability T1/2, Mouse. The method, then: (§1) After the 1 μM compound was incubated with 500 μg/ml of human or mouse liver microsomes and a NADPH regeneration system at 37° C. for different times, respectively, LC-MS-MS was used to analyze the remaining amount of the compound and calculate T1/2.

The nature of data set [2]: Stability test of human liver microsomes. It counts as in vitro ADME. The following applies: 1 μM compound, 500 μg/ml human liver microsomes, NADPH regeneration system, 37° C.; read-out: Liver microsomal stability T1/2, Human. The method, then:
as §1
(Microsomes from liver hold many membrane-bound enzymes, among them those of drug oxidation.)

For the next data set, the target named is T1, IDH1 R132C (Homo sapiens, UniProt O75874, R132C).
T1 construct: endogenous in cells; host or cells: HT1080
T1 sequence (O75874 whole entry R132C): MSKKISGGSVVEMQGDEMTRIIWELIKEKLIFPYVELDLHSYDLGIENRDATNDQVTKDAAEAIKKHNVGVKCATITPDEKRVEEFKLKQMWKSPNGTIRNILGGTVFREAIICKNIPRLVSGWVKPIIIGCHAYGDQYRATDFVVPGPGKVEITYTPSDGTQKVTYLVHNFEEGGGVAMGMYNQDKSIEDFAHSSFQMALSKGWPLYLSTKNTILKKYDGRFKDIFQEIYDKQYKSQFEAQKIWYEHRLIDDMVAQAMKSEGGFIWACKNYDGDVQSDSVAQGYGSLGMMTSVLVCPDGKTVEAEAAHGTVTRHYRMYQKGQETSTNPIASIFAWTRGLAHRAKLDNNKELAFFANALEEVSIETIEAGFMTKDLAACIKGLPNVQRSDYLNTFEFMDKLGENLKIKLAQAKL
The data set can be described thus: Detection of 2-HG in supernatant of HT1080 cells carrying IDH1 R132C. The class given is cell-based. The following applies: 72 h, LC-MS-MS. The method, then: (§2) U87MG cells overexpressing the mIDH1 R132H mutation or HT1080 cells carrying IDH1 R132C were seeded in a 48-well plate and a 96-well plate at 50,000 cells/well and 10,000 cells/well, respectively. After the cells were incubated overnight for adhesion, the supernatants were removed. The cell culture media containing serially diluted compounds were added, and the cells were incubated for 72 h. After 72 h, the culture media were collected and diluted 10-fold and 20-fold with water, respectively. Acetonitrile was added to extract the metabolites. The 2-HG content in the culture media was analyzed by LC-MS-MS. The percentage inhibition and IC50 of the compounds on 2-HG in the supernatant were calculated as compared with the control group.

Another data set addresses T2, mIDH1 R132H (Homo sapiens, UniProt O75874, R132H).
T2 construct: expressed in transfected cells; host or cells: U87MG
The data set is described as follows: Detection of 2-HG in supernatant of U87-IDH1 R132H cells. It counts as cell-based. The following applies: U-87 MG, 72 h, U87MG cells overexpressing mIDH1 R132H, LC-MS-MS; for inhibition at 0.001 µM: 1 nM compound, read-out: Inhibition rate on 2-HG in the supernatant of U87-IDH R132H cells, 1 nM; for inhibition at 0.01 µM: 10 nM compound, read-out: Inhibition rate on 2-HG in the supernatant of U87-IDH R132H cells, 10 nM; for inhibition at 0.1 µM: 100 nM compound, read-out: Inhibition rate on 2-HG in the supernatant of U87-IDH R132H cells, 100 nM. The method, then:
as §2

T2 sequence (O75874 whole entry R132H): as the sequence (O75874 whole entry R132C) above, with C132H counted along it

By IC50 is commonly meant the point on the concentration scale where inhibition reaches its midpoint. For `C=CC(=O)N1CCN([C@@H](CC2CC2)c2ccc([C@H](C)Nc3ncc4[nH]c(=O)n(CC)c4n3)cc2)CC1` [Compound 1-1], the figures for the half-life at 1 μM in data set [1] and in data set [2] were 4.4 min and 11.3 min, respectively. On IDH1 R132C, inhibition was half-maximal at 2.24 nM (IC50).
The corresponding values for `C=CC(=O)N1CCN(C(CC2CC2)c2ccc(C(C)Nc3ncc4[nH]c(=O)n(C5CCCC5)c4n3)cc2)CC1` (centres unmarked) [Compound 6-1] are 3.9 min, 4.4 min and 3.22 nM.
The corresponding values for `C=CC(=O)N1CCN([C@@H](CC2CC2)c2ccc([C@H](C)Nc3ncc4[nH]c(=O)n(C(C)C)c4n3)cc2)CC1` [Compound 3-1] are 4 min, 5 min and 1.22 nM.
As a reminder, the inhibition is the drop in the measured response relative to a control, in per cent. For `C=CC(=O)N1CCN(C(CC23CC(C2)C3)c2ccc([C@H](C)Nc3ncc4[nH]c(=O)n(CC)c4n3)cc2)CC1` (some centres unmarked) [Compound 12], at mIDH1 R132H, the inhibition at 0.001 µM was in the range of 30 to 60%, the inhibition at 0.01 µM is over 90% and the inhibition at 0.1 µM was over 90%.
`C=CC(=O)N1CCN([C@@H](CC2CC2)c2ccc([C@H](C)Nc3ncc4[nH]c(=O)n(C5CCC5)c4n3)cc2)CC1` [Compound 5-1] returned an IC50 on IDH1 R132C of 2.63 nM.
As to `C=CC(=O)N1CCN(C(CC2CC2)c2ccc([C@H](C)Nc3ncc4[nH]c(=O)n(CC)c4n3)cc2)CC1` (stereo partly drawn) [Compound 1, 2-(((1S)-1-(4-(1-(4-acryloylpiperazin-1-yl)-2-cyclopropylethyl)phenyl)ethyl)amino)-9-ethyl-7,9-dihydro-8H-purin-8-one], on mIDH1 R132H, the inhibition at 0.001 µM was in the range of 60 to 90%, the inhibition at 0.01 µM is over 90% and the inhibition at 0.1 µM is over 90%. Moreover, 4.48 nM corresponded to half-maximal inhibition on IDH1 R132C (IC50).
In the case of `C=CC(=O)NC1CN(C(CC2CC2)c2ccc([C@H](C)Nc3ncc4[nH]c(=O)n(CC)c4n3)cc2)C1` (some centres unmarked) [Compound 25], on mIDH1 R132H, the inhibition at 0.001 µM lay within 60 to 90%, the inhibition at 0.01 µM lay in the range of 60 to 90% and the inhibition at 0.1 µM was over 90%.
Regarding `C=CC(=O)N1CCN(C(CC2CC2)c2ccc([C@H](C)Nc3ncc4[nH]c(=O)n(C)c4n3)cc2)CC1` (some centres unmarked) [Compound 2], at mIDH1 R132H, the inhibition at 0.001 µM is 30 to 60%, the inhibition at 0.01 µM lay within 60 to 90% and the inhibition at 0.1 µM is over 90%.
The corresponding values for `C=CC(=O)N1CCN(C(CC23CC(C2)C3)c2ccc([C@H](C)Nc3ncc4[nH]c(=O)n(C5CCC5)c4n3)cc2)CC1` (some centres unmarked) [Compound 35] are 30 to 60%, over 90% and over 90%.
Regarding `C=CC(=O)NC1CCN(C(CC2CC2)c2ccc([C@H](C)Nc3ncc4[nH]c(=O)n(CC)c4n3)cc2)CC1` (some centres unmarked) [Compound 26], at mIDH1 R132H, the inhibition at 0.001 µM was 60 to 90%, the inhibition at 0.01 µM was 60 to 90% and the inhibition at 0.1 µM is over 90%.
For the compound `C=CC(=O)N1CCN(C(CC2CC2)c2ccc([C@H](C)Nc3ncc4[nH]c(=O)n(C5CCCC5)c4n3)cc2)CC1` (some centres unmarked) [Compound 6], at mIDH1 R132H, the inhibition at 0.001 µM was under 30%, the inhibition at 0.01 µM fell in the range of 60 to 90% and the inhibition at 0.1 µM was over 90%.
The corresponding values for `C=CC(=O)N1CCN(C(CC2CC2)c2ccc([C@H](C)Nc3ncc4[nH]c(=O)n(C5CCC5)c4n3)cc2)CC1` (some centres unmarked) [Compound 5] are 30 to 60%, over 90% and over 90%.
The corresponding values for `C=CC(=O)N(C)C1CN(C(CC2CC2)c2ccc([C@H](C)Nc3ncc4[nH]c(=O)n(CC)c4n3)cc2)C1` (some centres unmarked) [Compound 27] are under 30%, 60 to 90% and over 90%.
The corresponding values for `C=CC(=O)N1CCN(C(CC2CCC2)c2ccc([C@H](C)Nc3ncc4[nH]c(=O)n(CC)c4n3)cc2)CC1` (some centres unmarked) [Compound 10] are 30 to 60%, 60 to 90% and over 90%.
`C=CC(=O)N1CCN(C(CC23CC(C2)C3)c2ccc([C@H](C)Nc3ncc4[nH]c(=O)n(C5CCCC5)c4n3)cc2)CC1` (some centres unmarked) [Compound 36]: on mIDH1 R132H, the inhibition at 0.001 µM lay within 30 to 60%, the inhibition at 0.01 µM was over 90% and the inhibition at 0.1 µM is over 90%.
For the compound `N#Cc1ccnc(N2C(=O)CC[C@H]2C(=O)N(c2cncc(F)c2)[C@H](C(=O)NC2CC(F)(F)C2)c2ccccc2Cl)c1` [Ivosidenib, ivosidenib, reference compound], at mIDH1 R132H, the inhibition at 0.001 µM was under 30%, the inhibition at 0.01 µM was under 30% and the inhibition at 0.1 µM fell in the range of 60 to 90%.
Take `C=CC(=O)N1CCN(C(CC2(C)CC2)c2ccc([C@H](C)Nc3ncc4[nH]c(=O)n(CC)c4n3)cc2)CC1` (some centres unmarked) [Compound 13]: on mIDH1 R132H, the inhibition at 0.001 µM was in the range of 30 to 60%, the inhibition at 0.01 µM was in the range of 60 to 90% and the inhibition at 0.1 µM was over 90%.
Consider `C=CC(=O)N1CCN(C(CC2CC2)c2ccc([C@H](C)Nc3ncc4[nH]c(=O)n(C5CC5)c4n3)cc2)CC1` (some centres unmarked) [Compound 4], for which, on mIDH1 R132H, the inhibition at 0.001 µM was 30 to 60%, the inhibition at 0.01 µM is over 90% and the inhibition at 0.1 µM is over 90%.
On IDH1 R132C, `C=CC(=O)N1CCN([C@H](CC2CC2)c2ccc([C@H](C)Nc3ncc4[nH]c(=O)n(C(C)C)c4n3)cc2)CC1` [Compound 3-2] registered a concentration for half-maximal inhibition (IC50) of 2.36 nM.
On to `C=CC(=O)N1CCN(C(CC(C)C)c2ccc([C@H](C)Nc3ncc4[nH]c(=O)n(CC)c4n3)cc2)CC1` (some centres unmarked) [Compound 8], for which, on mIDH1 R132H, the inhibition at 0.001 µM fell in the range of 30 to 60%, the inhibition at 0.01 µM is over 90% and the inhibition at 0.1 µM is over 90%.
On to `C=CC(=O)N1CCN(C(CC2CC2)c2ccc([C@H](C)Nc3ncc4c(n3)n(CC)c(=O)n4C)cc2)CC1` (some centres unmarked) [Compound 37], for which, on mIDH1 R132H, the inhibition at 0.001 µM is under 30%, the inhibition at 0.01 µM lay within 60 to 90% and the inhibition at 0.1 µM was in the range of 60 to 90%.
On to `C=CC(=O)N1CCC(N(C)C(CC2CC2)c2ccc([C@H](C)Nc3ncc4[nH]c(=O)n(CC)c4n3)cc2)CC1` (some centres unmarked) [Compound 23], for which, at mIDH1 R132H, the inhibition at 0.001 µM was 30 to 60%, the inhibition at 0.01 µM lay within 60 to 90% and the inhibition at 0.1 µM was over 90%.
The corresponding values for `C=CC(=O)N1CCN(C2(c3ccc([C@H](C)Nc4ncc5[nH]c(=O)n(CC)c5n4)cc3)CCC(F)(F)CC2)CC1` [Compound 17] are 30 to 60%, 60 to 90% and over 90%.
The corresponding values for `C=CC(=O)N1CCN(C(CC(C)C)c2ccc([C@H](C)Nc3ncc4[nH]c(=O)n(C5CC5)c4n3)cc2)CC1` (some centres unmarked) [Compound 30] are 30 to 60%, over 90% and over 90%.
The corresponding values for `C=CC(=O)N1CCN(C(CC2CC2)c2ccc(C3(Nc4ncc5[nH]c(=O)n(CC)c5n4)CC3)cc2)CC1` (centres unmarked) [Compound 39] are under 30%, 60 to 90% and over 90%.
Turning to `C=CC(=O)N1CCN([C@@H](CC2CC2)c2ccc([C@H](C)Nc3ncc4[nH]c(=O)n(C5CC5)c4n3)cc2)CC1` [Compound 4-1], on IDH1 R132C, half-maximal inhibition (IC50) was put at 11.5 nM.
As for `C=CC(=O)N1CCN(C(CC2CC2)c2ccc(C3(Nc4ncc5[nH]c(=O)n(C(C)C)c5n4)CC3)cc2)CC1` (centres unmarked) [Compound 40], at mIDH1 R132H, the inhibition at 0.001 µM is under 30%, the inhibition at 0.01 µM was 60 to 90% and the inhibition at 0.1 µM was over 90%.
Turning to `C=CC(=O)N1CCC2(CC1)CN(C(CC1CC1)c1ccc([C@H](C)Nc3ncc4[nH]c(=O)n(CC)c4n3)cc1)C2` (some centres unmarked) [Compound 20], on mIDH1 R132H, the inhibition at 0.001 µM was in the range of 30 to 60%, the inhibition at 0.01 µM lay within 60 to 90% and the inhibition at 0.1 µM was over 90%.
In the case of `C=CC(=O)N1CCN(C(CC)(CC)c2ccc([C@H](C)Nc3ncc4[nH]c(=O)n(CC)c4n3)cc2)CC1` [Compound 14], at mIDH1 R132H, the inhibition at 0.001 µM was in the range of 30 to 60%, the inhibition at 0.01 µM was over 90% and the inhibition at 0.1 µM was over 90%.
For the compound `C=CC(=O)N1CCN(C(CC2CC2)c2ccc([C@H](C)Nc3ncc4[nH]c(=O)n(C(C)C)c4n3)cc2)CC1` (some centres unmarked) [Compound 3], at mIDH1 R132H, the inhibition at 0.001 µM lay within 30 to 60%, the inhibition at 0.01 µM was over 90% and the inhibition at 0.1 µM is over 90%. The compound also had an IC50 on IDH1 R132C of 2.06 nM.
With `C=CC(=O)N1CC2(CCN(C(CC3CC3)c3ccc([C@H](C)Nc4ncc5[nH]c(=O)n(CC)c5n4)cc3)C2)C1` (some centres unmarked) [Compound 21], on mIDH1 R132H, the inhibition at 0.001 µM lay within 30 to 60%, the inhibition at 0.01 µM was in the range of 60 to 90% and the inhibition at 0.1 µM was over 90%.
